One series concerns mGlu1. Particulars: cited from earlier work.
The test system of series [1] is acute rodent models of Parkinson's disease. Particulars: icv injection or systemically in a 50% DMSO vehicle; cited from earlier work.
For another series, the target named is human mGlu4 (Homo sapiens, UniProt Q14833). Briefly: cell-based.
A further series has as its target T1, CYP1A2 (Homo sapiens, UniProt P05177).
T1 sequence (P05177 1-516): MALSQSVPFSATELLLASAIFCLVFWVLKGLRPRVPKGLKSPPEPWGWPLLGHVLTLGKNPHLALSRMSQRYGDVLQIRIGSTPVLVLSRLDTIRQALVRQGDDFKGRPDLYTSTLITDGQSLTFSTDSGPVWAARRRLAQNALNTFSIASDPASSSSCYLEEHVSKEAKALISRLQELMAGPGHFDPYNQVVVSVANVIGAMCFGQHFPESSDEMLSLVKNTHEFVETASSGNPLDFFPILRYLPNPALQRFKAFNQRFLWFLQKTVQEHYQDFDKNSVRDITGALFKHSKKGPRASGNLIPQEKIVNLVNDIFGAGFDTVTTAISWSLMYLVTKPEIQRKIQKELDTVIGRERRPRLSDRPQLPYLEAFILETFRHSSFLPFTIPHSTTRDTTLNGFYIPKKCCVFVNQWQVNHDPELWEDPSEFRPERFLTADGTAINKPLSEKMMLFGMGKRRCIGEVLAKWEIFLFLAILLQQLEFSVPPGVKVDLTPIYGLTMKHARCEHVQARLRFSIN
Briefly: CYP450 enzyme inhibition, CYP1A2.

A further series addresses CYP2C9 (Homo sapiens, UniProt P11712). Briefly: CYP450 enzyme inhibition, CYP2C9. The following applies: P450 2C9, CYP2C9 inhibition.
In another series the target is CYP3A4 (Homo sapiens, UniProt P08684). The series can be described thus: CYP450 enzyme inhibition, CYP3A4.
Chain of CYP3A4 (P08684 whole entry): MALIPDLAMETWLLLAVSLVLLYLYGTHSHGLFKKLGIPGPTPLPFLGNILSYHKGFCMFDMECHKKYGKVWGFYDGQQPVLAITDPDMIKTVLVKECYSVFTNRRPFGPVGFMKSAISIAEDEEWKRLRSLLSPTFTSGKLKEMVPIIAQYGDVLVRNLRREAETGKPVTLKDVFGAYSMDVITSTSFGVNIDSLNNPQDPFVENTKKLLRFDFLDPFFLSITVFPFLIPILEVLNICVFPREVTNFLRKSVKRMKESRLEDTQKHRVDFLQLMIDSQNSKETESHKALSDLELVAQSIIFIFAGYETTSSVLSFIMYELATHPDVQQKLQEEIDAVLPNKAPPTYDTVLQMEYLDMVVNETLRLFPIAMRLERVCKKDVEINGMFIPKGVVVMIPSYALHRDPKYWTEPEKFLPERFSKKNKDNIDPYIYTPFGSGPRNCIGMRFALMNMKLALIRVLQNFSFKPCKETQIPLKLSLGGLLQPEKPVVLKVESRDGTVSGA
A further series deals with CYP2D6 (Homo sapiens, UniProt P10635). Briefly: CYP450 enzyme inhibition, CYP2D6. Particulars: P450 2D6, CYP2D6 inhibition.
Chain of CYP2D6 (P10635 whole entry): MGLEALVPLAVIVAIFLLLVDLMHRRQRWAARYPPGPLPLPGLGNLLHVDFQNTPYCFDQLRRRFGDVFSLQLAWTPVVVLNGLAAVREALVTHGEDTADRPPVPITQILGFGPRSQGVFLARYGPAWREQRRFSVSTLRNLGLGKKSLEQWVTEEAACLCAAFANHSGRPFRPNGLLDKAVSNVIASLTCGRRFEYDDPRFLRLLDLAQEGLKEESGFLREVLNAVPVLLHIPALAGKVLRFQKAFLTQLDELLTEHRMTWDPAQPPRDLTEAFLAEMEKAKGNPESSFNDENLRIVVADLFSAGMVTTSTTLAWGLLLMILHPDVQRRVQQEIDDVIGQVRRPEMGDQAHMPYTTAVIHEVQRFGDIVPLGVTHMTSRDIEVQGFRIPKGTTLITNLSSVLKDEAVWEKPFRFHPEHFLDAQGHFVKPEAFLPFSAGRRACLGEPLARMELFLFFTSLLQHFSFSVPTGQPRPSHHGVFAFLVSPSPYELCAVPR
Another series can be described thus: microsomal stability. Particulars: for Rat Clint: microsomal intrinsic clearance in vitro; for CLint scaled at 1 µM: rat, microsomes.
For series [2] the following is noted: dosed systemically in a nontoxic vehicle; cited from earlier work.
The next series has as its target rat mGlu4 (Rattus norvegicus, UniProt P31423). The series can be described thus: thallium flux in HEK cells expressing rat mGlu4 with GIRK channels. The class given is cell-based. Particulars: maximal PAM response normalized to control PAM 1 (PHCCC); mean ± SEM.

Where two headings read alike, the source gives them in different places.

Chain of CYP2C9 (P11712 whole entry): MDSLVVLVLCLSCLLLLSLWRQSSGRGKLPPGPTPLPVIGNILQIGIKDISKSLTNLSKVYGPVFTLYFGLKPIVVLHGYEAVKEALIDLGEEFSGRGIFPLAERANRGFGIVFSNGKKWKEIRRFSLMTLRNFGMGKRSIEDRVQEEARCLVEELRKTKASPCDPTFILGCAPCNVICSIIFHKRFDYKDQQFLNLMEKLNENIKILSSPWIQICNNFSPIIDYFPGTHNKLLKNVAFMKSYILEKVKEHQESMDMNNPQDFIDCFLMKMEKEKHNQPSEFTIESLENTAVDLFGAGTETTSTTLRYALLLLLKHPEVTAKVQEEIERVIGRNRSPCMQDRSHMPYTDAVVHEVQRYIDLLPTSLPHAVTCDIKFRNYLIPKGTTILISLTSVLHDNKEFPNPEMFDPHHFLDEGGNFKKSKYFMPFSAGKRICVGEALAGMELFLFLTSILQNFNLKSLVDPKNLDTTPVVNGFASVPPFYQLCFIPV
Chain of human mGlu4 (Q14833 33-912): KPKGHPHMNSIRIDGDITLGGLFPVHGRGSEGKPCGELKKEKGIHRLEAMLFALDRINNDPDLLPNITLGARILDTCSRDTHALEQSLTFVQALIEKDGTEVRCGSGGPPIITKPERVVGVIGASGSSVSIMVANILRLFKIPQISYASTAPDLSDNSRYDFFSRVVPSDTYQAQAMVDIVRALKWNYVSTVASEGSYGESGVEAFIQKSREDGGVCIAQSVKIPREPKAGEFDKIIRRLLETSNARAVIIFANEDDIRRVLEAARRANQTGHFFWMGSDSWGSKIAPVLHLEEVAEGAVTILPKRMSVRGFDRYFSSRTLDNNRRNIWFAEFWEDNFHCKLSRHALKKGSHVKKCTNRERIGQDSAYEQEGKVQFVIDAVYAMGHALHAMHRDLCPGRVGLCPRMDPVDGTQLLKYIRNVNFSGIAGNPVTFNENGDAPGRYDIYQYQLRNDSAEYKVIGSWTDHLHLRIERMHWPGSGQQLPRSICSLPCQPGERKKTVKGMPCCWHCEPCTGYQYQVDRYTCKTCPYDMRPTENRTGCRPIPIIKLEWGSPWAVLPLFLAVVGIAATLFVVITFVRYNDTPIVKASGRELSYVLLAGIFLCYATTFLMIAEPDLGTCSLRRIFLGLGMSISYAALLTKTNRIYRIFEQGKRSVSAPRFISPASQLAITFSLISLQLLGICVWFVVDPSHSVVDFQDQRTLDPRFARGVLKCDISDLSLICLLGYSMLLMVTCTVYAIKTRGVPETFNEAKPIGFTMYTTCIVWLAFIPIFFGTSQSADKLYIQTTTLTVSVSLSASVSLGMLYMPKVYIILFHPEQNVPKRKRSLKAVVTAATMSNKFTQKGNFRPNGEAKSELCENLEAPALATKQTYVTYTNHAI
Chain of rat mGlu4 (P31423 33-912): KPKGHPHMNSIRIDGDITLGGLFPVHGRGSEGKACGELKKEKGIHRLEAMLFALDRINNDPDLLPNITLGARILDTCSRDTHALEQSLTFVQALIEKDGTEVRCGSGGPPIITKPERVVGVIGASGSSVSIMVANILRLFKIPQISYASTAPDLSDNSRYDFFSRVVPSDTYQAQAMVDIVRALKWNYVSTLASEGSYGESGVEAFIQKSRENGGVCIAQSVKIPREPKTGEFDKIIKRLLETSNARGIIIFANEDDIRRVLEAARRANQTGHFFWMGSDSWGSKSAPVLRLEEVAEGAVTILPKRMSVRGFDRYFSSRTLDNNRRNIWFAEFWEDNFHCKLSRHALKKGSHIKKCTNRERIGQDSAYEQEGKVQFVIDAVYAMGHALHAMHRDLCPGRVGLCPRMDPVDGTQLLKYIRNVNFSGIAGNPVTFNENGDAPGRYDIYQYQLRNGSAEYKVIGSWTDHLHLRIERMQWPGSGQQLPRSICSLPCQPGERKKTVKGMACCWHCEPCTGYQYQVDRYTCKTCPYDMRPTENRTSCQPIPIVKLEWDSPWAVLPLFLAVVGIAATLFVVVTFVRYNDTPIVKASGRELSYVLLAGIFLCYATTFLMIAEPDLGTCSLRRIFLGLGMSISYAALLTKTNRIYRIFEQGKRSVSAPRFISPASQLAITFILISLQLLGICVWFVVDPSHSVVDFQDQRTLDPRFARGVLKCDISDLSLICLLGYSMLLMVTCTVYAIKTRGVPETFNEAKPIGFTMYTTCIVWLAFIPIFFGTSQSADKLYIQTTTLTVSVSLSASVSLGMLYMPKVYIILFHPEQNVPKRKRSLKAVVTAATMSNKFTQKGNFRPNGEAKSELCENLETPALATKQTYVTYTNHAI

For the molecule `O=C(Nc1ccccc1)[C@]12C[C@H]1/C(=N\O)c1ccccc1O2` (stereo in doubt) [Compound 1, N-phenyl-7-(hydroxyimino)cyclopropa[b]chromen-1a-carboxamide], the “activity at mGlu1” value with mGlu1 was “partial antagonist activity”. Besides, in series [1], the “activity in acute rodent models of Parkinson's disease” value is recorded as “active”.

In general, EC50 refers to the concentration at which the effect is half-maximal. Read a low EC50 as higher potency in that assay. On human mGlu4, `O=C(Nc1ccc(NC(=O)c2ccccc2Cl)c(C(F)(F)F)c1)c1ccccn1` [Compound 10b] displayed an EC50 of 0.556 µM.

Regarding `COc1cc(NC(=O)c2cnccn2)ccc1NC(=O)c1ccccc1Cl` [Compound 9h], at human mGlu4, the response was half-maximal at 0.0995 µM (EC50).

What is called IC50 is the concentration needed to halve the response being measured. Low values mean inhibition by little substance, high ones a need for much substance. By CLint scaled is commonly meant the rate of metabolic loss divided by the concentration. A low value points to slow turnover. For `Cc1ccccc1C(=O)Nc1ccc(NC(=O)c2ccccn2)cc1Cl` [Compound 12a, N-(3-chloro-4-(2-methylbenzamido)phenyl)picolinamide], the IC50 at CYP1A2 was more than 30 µM; against CYP1A2 (human) it was more than 10 µM; against CYP2C9, 14.1 µM; at CYP3A4, more than 30 µM; on CYP2D6, 12 µM. For the same molecule, the “Rat Clint” value in the series “microsomal stability” was “acceptable”. For the same molecule, the CLint scaled at 1 µM in the series “microsomal stability” turned out to be 46.2 mL/min/kg.

Take `O=C(Nc1ccc(NC(=O)c2ccccc2Cl)c(Cl)c1)c1ccccn1` [Compound 10a, N-(3-chloro-4-(2-chlorobenzamido)phenyl)picolinamide]: the IC50 is more than 30 µM against CYP1A2, 11.8 µM against CYP2C9, more than 30 µM on CYP3A4 and 13.1 µM on CYP2D6. In “microsomal stability”, the “Rat Clint” value was “acceptable”. In the series “microsomal stability”, this molecule yielded a CLint scaled at 1 µM of 44.9 mL/min/kg.

`O=C(Nc1ccc(NC(=O)c2ccccc2Cl)c(F)c1)c1ccccn1` [Compound 10d] had a CLint scaled at 1 µM in the series “microsomal stability” of 31.2 mL/min/kg.

Regarding `O=C(Nc1ccc(NC(=O)c2ccc(F)cc2Cl)c(Cl)c1)c1ccccn1` [Compound 12d], the CLint scaled at 1 µM in the series “microsomal stability” was found to be 54 mL/min/kg.

For `COc1cc(NC(=O)c2ccccn2)ccc1Cl` [Compound 3], the CNS penetration result in series [2] is recorded as “CNS penetrant”.

Turning to `COc1ccccc1C(=O)n1ccc2cc(NC(=O)c3ccccn3)ccc21` [Compound 15], in “microsomal stability”, the “Rat Clint” value is on record as “poor metabolic stability” and the CLint scaled at 1 µM is 605 mL/min/kg.

For `O=C(Nc1ccc(NC(=O)c2ccccc2Cl)cc1)c1ccccn1` [Compound 10c], it took 3.75 µM to reach a half-maximal effect at human mGlu4 (EC50).

With `COc1cc(NC(=O)c2ccccn2)ccc1NC(=O)c1ccccc1Cl` [Compound 9g, N-(4-(2-chlorobenzamido)-3-methoxyphenyl)picolinamide], the “GluMax (%Cmpd 1), rat mGlu4” value on rat mGlu4 was 147.0 %Cmpd 1. Moreover, the concentration for half-maximal inhibition (IC50) is more than 30 µM on CYP1A2, 14.3 µM against CYP2C9, more than 30 µM on CYP3A4 and 12.8 µM on CYP2D6. The same molecule registered a CLint scaled at 1 µM in “microsomal stability” of 42.6 mL/min/kg.

As to `COc1cc(NC(=O)c2nccs2)ccc1NC(=O)c1ccccc1Cl` [Compound 9e], the “GluMax (%Cmpd 1), rat mGlu4” value at rat mGlu4 is 133.9 %Cmpd 1. In addition, in the series “microsomal stability”, the “Rat Clint” value is given as “poor metabolic stability” and the CLint scaled at 1 µM came to 185 mL/min/kg.

These data come from article PMC3166797 (Journal of medicinal chemistry, 2011).
